Structures can show the parent of a compound that is named as a salt.
Assay: Apparent aqueous solubility by the dissolution method
Conditions: water; for solubility: 22 °C, thermodynamic from solid

Structure (SMILES)	solubility (unusually high)	solubility
CCCC[N+]1(C)[C@@H]2C[C@@H](OC(=O)[C@H](CO)c3ccccc3)C[C@H]1[C@@H]1O[C@@H]12 (stereo partly drawn) [[Bs]Br, Butyl scopolammonium bromide]	more than one gram per milliliter	1800 ± 200 mg/mL
O=c1n(CCCN2CCN(c3cccc(Cl)c3)CC2)nc2ccccn12 [[TrH]Cl, Trazodone hydrochloride]	–	38.5 ± 0.2 mg/mL
